The values that follow come from ChEMBL document CHEMBL1124964, “Synthesis, structure, and antiparasitic activity of sulfamoyl derivatives of ribavirin” (1990).

The structures appear in SMILES notation. Converted amounts (≈) assume the structure as drawn. “And” between values parts separate entries of the source, which are not always exact repeats. Identical values can stand only once.

Holding throughout (assay type): functional
Experiment [1] has as its system Mus musculus. Briefly: In vivo antiparasitic activity against Trypanosoma brucei was tested at 25 mg/kg. Average survival time of the mice was determined.
The subject of experiment [2] is Mus musculus. Briefly: In vivo antiparasitic activity against Trypanosoma brucei was tested at […]. Percent of mice cured after oral administration.
Experiment [3] concerns Mus musculus. As to the kind of experiment: In vivo antiparasitic activity against Trypanosoma brucei was tested at […]. Range of survival of mice.
Another experiment concerns Trypanosoma cruzi. As to the kind of experiment: In vitro antiparasitic activity against Trypanosoma cruzi was determined. Particulars: read-out: ED50 (the source's name).
Experiment [4] has as its system Trypanosoma brucei gambiense. As to the kind of experiment: In vitro antiparasitic activity against Trypanosoma gambiense was determined. Particulars: read-out: ED50 (the source's name).
A further experiment relates to Trichomonas vaginalis. As to the kind of experiment: In vitro antiparasitic activity against […] was determined. The note with it: read-out: ED50 (the source's name).
The test system of a further experiment is Giardia intestinalis. Briefly: In vitro antiparasitic activity against Giardia lamblia was determined. Particulars: Giardia duodenalis; read-out: ED50 (the source's name).
Experiment [5] deals with Leishmania donovani. As to the kind of experiment: In vitro antiparasitic activity against Leishmania donovani was determined. Particulars: read-out: ED50 (the source's name).
In experiment [6] the test system is Leishmania donovani. Briefly: % Suppression = 100 - 100(LDUs of experimental / LDUs of control).
Experiment [7] deals with Leishmania donovani. As to the kind of experiment: % Suppression = 100 - 100(LDUs of experimental / LDUs of control) at.
Experiment [8] is filed under the species Mus musculus. As to the kind of experiment: LDUs (Leishmania Donovan Units) in liver The liver parasite burden expressed as Leishmania Donovanii units.
The species entered for experiment [9] is Mus musculus. As to the kind of experiment: LDUs (Leishmania Donovan Units) in liver The liver parasite burden expressed as Leishmania Donovanii units at.
The subject of experiment [10] is Trypanosoma brucei. Briefly: In vivo antiparasitic activity against Trypanosoma brucei was tested at 10 mg/kg. Range of survival of mice; 4-11.
The subject of experiment [11] is Trypanosoma brucei. Briefly: In vivo antiparasitic activity against Trypanosoma brucei was tested at 1 mg/kg. Range of survival of mice; 4-5.
Experiment [12] concerns Trypanosoma brucei. Briefly: In vivo antiparasitic activity against Trypanosoma brucei was tested at 20 mg/kg. Range of survival of mice; 4-11.
The test system of experiment [13] is Trypanosoma brucei. As to the kind of experiment: In vivo antiparasitic activity against Trypanosoma brucei was tested at 50 mg/kg (i.v.). Range of survival of mice; 4-12. Particulars: route intravenous.
Experiment [14] relates to Trypanosoma brucei. As to the kind of experiment: In vivo antiparasitic activity against Trypanosoma brucei was tested at 50 mg/kg (p.o.). Range of survival of mice; 10-14. The note with it: route oral.
In experiment [15] the test system is Trypanosoma brucei. As to the kind of experiment: In vivo antiparasitic activity against Trypanosoma brucei was tested at 50 mg/kg. Range of survival of mice; 10-4.
The subject of experiment [16] is Trypanosoma brucei. As to the kind of experiment: In vivo antiparasitic activity against Trypanosoma brucei was tested at 5 mg/kg. Range of survival of mice; 4-6.
The subject of experiment [17] is Trypanosoma brucei. Briefly: In vivo antiparasitic activity against Trypanosoma brucei was tested. Range of survival of mice.
Experiment [18] deals with Trypanosoma brucei. As to the kind of experiment: In vivo antiparasitic activity against Trypanosoma brucei was tested at 20 mg/kg. Average survival time of the mice taken in this experiment.
Experiment [19] concerns Trypanosoma brucei. Briefly: In vivo antiparasitic activity against Trypanosoma brucei was tested at 50 mg/kg (i.v.). Average survival time of the mice taken in this experiment. Particulars: route intravenous.
For experiment [20], the system named is Trypanosoma brucei. As to the kind of experiment: In vivo antiparasitic activity against Trypanosoma brucei was tested at 50 mg/kg (p.o.). Average survival time of the mice taken in this experiment. The note with it: route oral.
Experiment [21] deals with Trypanosoma brucei. As to the kind of experiment: In vivo antiparasitic activity against Trypanosoma brucei was tested at 50 mg/kg. Average survival time of the mice taken in this experiment.
Experiment [22] concerns Trypanosoma brucei. As to the kind of experiment: In vivo antiparasitic activity against Trypanosoma brucei was tested at 5 mg/kg. Average survival time of the mice taken in this experiment.
Experiment [23] deals with Trypanosoma brucei. As to the kind of experiment: In vivo antiparasitic activity against Trypanosoma brucei was tested. Average survival time of the mice taken in this experiment.
For experiment [24], the system named is Trypanosoma brucei. As to the kind of experiment: In vivo antiparasitic activity against Trypanosoma brucei was tested at 10 mg/kg. Percent of mice cured after administering the compound.
In experiment [25] the test system is Trypanosoma brucei. Briefly: In vivo antiparasitic activity against Trypanosoma brucei was tested at 1 mg/kg Percent of mice cured after oral administration.
Experiment [26] concerns Trypanosoma brucei. Briefly: In vivo antiparasitic activity against Trypanosoma brucei was tested at 20 mg/kg. Percent of mice cured after administering the compound.
Experiment [27] concerns Trypanosoma brucei. As to the kind of experiment: In vivo antiparasitic activity against Trypanosoma brucei was tested at 50 mg/kg (i.v.).. Percent of mice cured after administering the compound. Particulars: route intravenous.
The subject of experiment [28] is Trypanosoma brucei. As to the kind of experiment: In vivo antiparasitic activity against Trypanosoma brucei was tested at 50 mg/kg (p.o.). Percent of mice cured after administering the compound. The note with it: route oral.
The test system of experiment [29] is Trypanosoma brucei. Briefly: In vivo antiparasitic activity against Trypanosoma brucei was tested at 50 mg/kg. Percent of mice cured after administering the compound.
The test system of experiment [30] is Trypanosoma brucei. Briefly: In vivo antiparasitic activity against Trypanosoma brucei was tested at 5 mg/kg. Percent of mice cured after administering the compound.
Experiment [31] relates to Trypanosoma brucei. As to the kind of experiment: In vivo antiparasitic activity against Trypanosoma brucei was tested. Percent of mice cured after administering the compound.
The subject of experiment [32] is Trypanosoma brucei. As to the kind of experiment: In vivo antiparasitic activity against Trypanosoma brucei was tested at 10 mg/kg. Average survival time of the mice taken in this experiment.
Experiment [33] concerns Trypanosoma brucei. As to the kind of experiment: In vivo antiparasitic activity against Trypanosoma brucei was tested at 1 mg/kg. Average survival time of the mice was determined.
Experiment [34] concerns Leishmania donovani. Briefly: % […] = 100 - 100(LDUs of experimental / LDUs of control).
Experiment [35] relates to Mus musculus. Briefly: In vivo LDUs (Leishmania Donovan Units) in liver of mouse at a dose of 10 mg/kg/day.
For experiment [36], the system named is Mus musculus. As to the kind of experiment: In vivo LDUs (Leishmania Donovan Units) in liver of mouse at a dose of 20 mg/kg/day.
The subject of experiment [37] is Mus musculus. As to the kind of experiment: In vivo LDUs (Leishmania Donovan Units) in liver of mouse at a dose of 50 mg/kg/day.

For the compound `O=C1N=CN=C2C1N=CC2[C@@H]1O[C@H](CO)[C@@H](O)[C@H]1O` (stereo partly specified), in the experiment on Mus musculus [1], the Average survival worked out at 35 days. This compound also registered a Cured with Mus musculus [2] of 100%. The Range of survival with Mus musculus [3] is 35.
For `N#Cc1ncn(C2O[C@H](COS(N)(=O)=O)[C@@H](O)[C@H]2O)n1` (stereo partly specified), the EC50 was more than 50 µg/mL in the experiment with Trypanosoma cruzi; 1 µg/mL (≈ 3.28 µM) in experiment [4]; more than 25 µg/mL in the experiment with Trichomonas vaginalis; more than 25 µg/mL with Giardia intestinalis; 1 µg/mL (≈ 3.28 µM) in the experiment with Leishmania donovani [5].
For the compound `NC(=O)c1ncn(C2O[C@H](COS(N)(=O)=O)[C@@H](O)[C@H]2O)n1` (stereo partly specified), the Suppression is 50% and 67% in the experiment with Leishmania donovani [6]; 18% in the experiment on Leishmania donovani [7]. Also, the Activity was 765 and 501 in the experiment filed under Mus musculus [8]; 1244 in the experiment listed under Mus musculus [9]. Besides, the EC50 is more than 50 µg/mL in the experiment on Trypanosoma cruzi; 0.01 µg/mL (≈ 0.0309 µM) in experiment [4]; more than 25 µg/mL in the experiment on Trichomonas vaginalis; 10 µg/mL (≈ 30.9 µM) in the experiment with Giardia intestinalis; 0.03 µg/mL (≈ 0.0928 µM) with Leishmania donovani [5]. Also, the Range of survival in the experiment on Trypanosoma brucei [10] came to 4; in the experiment on Trypanosoma brucei [11] it was 4; with Trypanosoma brucei [12], 4; with Trypanosoma brucei [13] it was 4; in the experiment on Trypanosoma brucei [14], 10; in the experiment on Trypanosoma brucei [15], 4. Further, the values for the Range of survival with Trypanosoma brucei [16] and in the experiment with Trypanosoma brucei [17] were 4 and 5, respectively. Moreover, the Average survival with Trypanosoma brucei [18] was found to be 7.4 days; with Trypanosoma brucei [19], 6.4 days; with Trypanosoma brucei [20], 11.6 days; with Trypanosoma brucei [21], 6.4 days; with Trypanosoma brucei [22], 4.8 days; in the experiment with Trypanosoma brucei [23] it was 3.4 days. Besides, the Average survival in the experiment on Trypanosoma brucei [32] was determined as 7.4 days; in the experiment on Trypanosoma brucei [33] it was 4.6 days. The Cured with Trypanosoma brucei [24], with Trypanosoma brucei [25], with Trypanosoma brucei [26], in the experiment on Trypanosoma brucei [27], in the experiment with Trypanosoma brucei [28] and in the experiment with Trypanosoma brucei [29] was 0% each time. The Cured with Trypanosoma brucei [30] and in the experiment with Trypanosoma brucei [31] was 0% throughout.
Take `NC(=S)c1ncn(C2O[C@H](COS(N)(=O)=O)[C@@H](O)[C@H]2O)n1` (stereo partly specified): the Suppression with Leishmania donovani [6] and in the experiment with Leishmania donovani [34] was 0% in each case. For the same compound, the Activity in the experiment on Mus musculus [35] turned out to be 1039; in the experiment with Mus musculus [36], 1143; with Mus musculus [37], 1514. Also, the EC50 with Trypanosoma cruzi was more than 50 µg/mL; in experiment [4] it was 0.5 µg/mL (≈ 1.47 µM); in the experiment with Trichomonas vaginalis, 15 µg/mL (≈ 44.2 µM); in the experiment with Giardia intestinalis, more than 25 µg/mL; with Leishmania donovani [5], 2.5 µg/mL (≈ 7.37 µM).
